Results reported in ChEMBL document CHEMBL5625206, “Design, synthesis, and evaluation of novel pleuromutilin aryl acrylate derivatives as promising broad-spectrum antibiotics especially for combatting multi-drug resistant gram-negative bacteria” (Eur J Med Chem, 2023).
Values after ≈ are worked out from the molar mass of the structure shown. Active and inactive are the calls of the source. No cut-off for these calls is given here.

Key:
[1] = system: Staphylococcus epidermidis; experiment: Antibacterial activity against Staphylococcus epidermidis ATCC 12228 assessed as bacterial growth inhibition incubated for 24 hrs by CLSI based broth microdilution method; format: functional
Staphylococcus aureus [2] = experiment: Antibacterial activity against Staphylococcus aureus ATCC 25923 assessed as bacterial growth inhibition incubated for 24 hrs by CLSI based broth microdilution method; format: functional
Enterococcus = experiment: Antibacterial activity against vancomycin-resistant Enterococcus 80 clinical isolate assessed as bacterial growth inhibition incubated for 24 hrs by CLSI based broth microdilution method; format: functional
Escherichia coli [3] = experiment: Bactericidal activity against Escherichia coli ATCC 25922 incubated for 24 hrs by time kill assay; format: functional, organism-based
[4] = system: Mesomycoplasma hyopneumoniae; experiment: Anti-mycoplasma activity against Mycoplasma hyopneumoniae J-NCYC10110 assessed as bacterial growth inhibition incubated for 7 days; format: functional; conditions: J-NCYC10110, 168 h, time 7 day
Mesomycoplasma hyorhinis = experiment: Anti-mycoplasma activity against Mycoplasma hyorhinis BTS-7-NCTC10130 assessed as bacterial growth inhibition incubated for 7 days; format: functional; conditions: BTS-7-NCTC10130, 168 h, time 7 day
[5] = Cytotoxicity against human A549 cells incubated for 24 hrs by CCK8 assay; format: toxicity, cell-based
Escherichia coli [6] = experiment: Inhibition of biofilm formation of Escherichia coli ATCC 25922 incubated for 24 hrs by crystal violet staining based analysis; format: functional, organism-based
Staphylococcus aureus [7] = experiment: Induction of cell damage in methicillin-resistant Staphylococcus aureus ATCC 33591 assessed as decrease in intracellular ATP concentration at MIC incubated for 30 mins by fluorescence based analysis relative to control; format: functional; set-up: scale not given: the % may be the effect or the level left; conditions: 0.5 h
Escherichia coli [8] = experiment: Induction of cell damage in Escherichia coli ATCC 25922 assessed as intracellular pH at 2 times MIC incubated for 30 mins by fluorescence based analysis (reference value: 6.05 +/- 0.10); format: functional; conditions: 0.5 h
Escherichia coli [9] = experiment: Depolarization of cell membrane in Escherichia coli ATCC 25922 by DiBAC4(3) probe based analysis; format: functional, organism-based
Escherichia coli [10] = experiment: Disruption of cell membrane integrity in Escherichia coli ATCC 25922 assessed as appearance of pores on cell membrane at 4 times MIC incubated for 4 hrs by FESEM analysis; format: functional, organism-based
Staphylococcus aureus [11] = experiment: Antibacterial activity against methicillin-resistant Staphylococcus aureus ATCC 33591 infected in neutropenic Kunming mouse model assessed as reduction in infection-induced inflammatory cell inflammation in lung at 10 mg/kg, ip measured after 7 days; format: functional, organism-based; conditions: time 7.0 day
Staphylococcus aureus [12] = experiment: Antibacterial activity against methicillin-resistant Staphylococcus aureus ATCC 33591 infected in neutropenic Kunming mouse model assessed as restoration of infection- induced change in cell morphology in lung at 20 mg/kg, ip measured after 7 days; format: functional, organism-based; conditions: time 7.0 day
[13] = Cmax in fasted Sprague-Dawley rat at 1 mg/kg, iv by LC-MS/MS analysis; format: ADME, organism-based; conditions: in vivo
[14] = Toxicity in fasted male Sprague-Dawley rat assessed as body weight at 224 mg/kg, IG measured on same day (reference value: 212.7 +/- 13.2 g); format: organism-based; conditions: in vivo, po
[15] = Toxicity in fasted female Sprague-Dawley rat assessed as body weight at 224 mg/kg, IG measured on same day (reference value: 165.2 +/- 8.1 g); format: organism-based; conditions: in vivo, po
[16] = Toxicity in fasted male Sprague-Dawley rat assessed as body weight at 148 mg/kg, IG measured after 7 days (reference value: 260.5 +/- 12.7 g); format: organism-based; conditions: in vivo, po, 168 h, time 7 day
[17] = Toxicity in fasted female Sprague-Dawley rat assessed as body weight at 500 mg/kg, IG measured after 7 days (reference value: 188.2 +/- 9.2 g); format: organism-based; conditions: in vivo, po, 168 h, time 7 day
[18] = Toxicity in fasted male Sprague-Dawley rat assessed as body weight at 148 mg/kg, IG measured after 14 days (reference value: 311.2 +/- 13.6 g); format: organism-based; conditions: in vivo, po, 336 h, time 14 day
[19] = Toxicity in fasted female Sprague-Dawley rat assessed as body weight at 148 mg/kg, IG measured after 14 days (reference value: 214.3 +/- 9.8 g); format: organism-based; conditions: in vivo, po, 336 h, time 14 day
[20] = Toxicity in fasted female Sprague-Dawley rat assessed as body weight at 500 mg/kg, IG measured after 14 days (reference value: 214.3 +/- 9.8 g); format: organism-based; conditions: in vivo, po, 336 h, time 14 day
[21] = Toxicity in fasted male Sprague-Dawley rat assessed as animal growth rate at 148 mg/kg, IG measured for 14 days (reference value: 46.53 +/- 3.19 g); format: organism-based; conditions: in vivo, po, 336 h, time 14 day
[22] = Toxicity in fasted female Sprague-Dawley rat assessed as animal growth rate at 148 mg/kg, IG measured for 14 days (reference value: 29.85 +/- 4.97 g); format: organism-based; conditions: in vivo, po, 336 h, time 14 day
[23] = Toxicity in fasted female Sprague-Dawley rat assessed as animal growth rate at 224 mg/kg, IG measured for 14 days (reference value: 29.85 +/- 4.97 g); format: organism-based; conditions: in vivo, po, 336 h, time 14 day
[24] = Toxicity in fasted male Sprague-Dawley rat assessed as relative liver weight ratio at 224 mg/kg, IG measured for 14 days (reference value: 3.616 +/- 0.286); format: organism-based; conditions: in vivo, po, 336 h, time 14 day
[25] = Toxicity in fasted male Sprague-Dawley rat assessed as relative liver weight ratio at 331 mg/kg, IG measured for 14 days (reference value: 3.616 +/- 0.286); format: organism-based; conditions: in vivo, po, 336 h, time 14 day
[26] = Toxicity in fasted male Sprague-Dawley rat assessed as relative liver weight ratio at 500 mg/kg, IG measured for 14 days (reference value: 3.616 +/- 0.286); format: organism-based; conditions: in vivo, po, 336 h, time 14 day
[27] = Toxicity in fasted female Sprague-Dawley rat assessed as relative liver weight ratio at 500 mg/kg, IG measured for 14 days (reference value: 3.199 +/- 0.062); format: organism-based; conditions: in vivo, po, 336 h, time 14 day
[28] = Toxicity in fasted male Sprague-Dawley rat assessed as relative kidney weight ratio at 100 mg/kg, IG measured for 14 days (reference value: 0.820 +/- 0.072); format: organism-based; conditions: in vivo, po, 336 h, time 14 day
[29] = Toxicity in fasted male Sprague-Dawley rat assessed as relative kidney weight ratio at 148 mg/kg, IG measured for 14 days (reference value: 0.820 +/- 0.072); format: organism-based; conditions: in vivo, po, 336 h, time 14 day
[30] = Toxicity in fasted female Sprague-Dawley rat assessed as relative heart weight ratio at 100 mg/kg, IG measured for 14 days (reference value: 0.429 +/- 0.016); format: organism-based; conditions: in vivo, po, 336 h, time 14 day
[31] = Toxicity in fasted female Sprague-Dawley rat assessed as relative heart weight ratio at 224 mg/kg, IG measured for 14 days (reference value: 0.429 +/- 0.016); format: organism-based; conditions: in vivo, po, 336 h, time 14 day
[32] = Toxicity in fasted male Sprague-Dawley rat assessed as relative testis weight ratio at 224 mg/kg, IG measured for 14 days (reference value: 0.993 +/- 0.052); format: organism-based; conditions: in vivo, po, 336 h, time 14 day
[33] = Toxicity in fasted male Sprague-Dawley rat assessed as relative testis weight ratio at 331 mg/kg, IG measured for 14 days (reference value: 0.993 +/- 0.052); format: organism-based; conditions: in vivo, po, 336 h, time 14 day
Staphylococcus aureus [34] = experiment: Induction of extracellular electrical conductivity in methicillin-resistant Staphylococcus aureus ATCC 33591 at MIC incubated for 8 hrs relative to control
Staphylococcus aureus [35] = experiment: Induction of extracellular electrical conductivity in methicillin-resistant Staphylococcus aureus ATCC 33591 at 2 times MIC incubated for 8 hrs relative to control

Structure (SMILES): C=C[C@]1(C)C[C@@H](OC(=O)COC(=O)/C=C/c2ccc(N(C)C)cc2)[C@]2(C)[C@H](C)CC[C@]3(CCC(=O)[C@H]32)[C@@H](C)[C@@H]1O
- MIC [1]: 1 µg/mL (≈ 1.81 µM)
- MIC (Staphylococcus aureus [2]): 1 µg/mL (≈ 1.81 µM)
- MIC (Enterococcus): 4 µg/mL (≈ 7.25 µM)
- Activity (Escherichia coli [3]): Dose-Dependent Effect
- MIC [4]: 0.008 µg/mL (≈ 0.0145 µM)
- MIC (Mesomycoplasma hyorhinis): 0.004 µg/mL (≈ 0.00725 µM)
- CC50 at 24 h [5]: > 200 µM
- inhibition (Escherichia coli [6]): Dose-Dependent Effect
- Activity (Staphylococcus aureus [7]): 57.98%
- pH (Escherichia coli [8]): 3.23
- Activity (Escherichia coli [9]): Dose-Dependent Effect
- Activity (Escherichia coli [10]): Active
- Activity (Staphylococcus aureus [11]): inactive
- Activity (Staphylococcus aureus [12]): Active
- Cmax [13]: 9570 ng/mL
- Activity [14]: 210.1 g
- Activity [15]: 168.5 g
- Activity [16]: 256.8 g
- Activity [17]: 181.3 g
- Activity [18]: 303.6 g
- Activity [19]: 210.5 g
- Activity [20]: 207.7 g
- Activity [21]: 45.63%
- Activity [22]: 31.79%
- Activity [23]: 28.96%
- Ratio [24]: 3.699
- Ratio [25]: 3.528
- Ratio [26]: 3.551
- Ratio [27]: 3.203
- Ratio [28]: 0.822
- Ratio [29]: 0.799
- Ratio [30]: 0.438
- Ratio [31]: 0.453
- Ratio [32]: 0.981
- Ratio [33]: 1
- Activity (Staphylococcus aureus [34]): 14.9%
- Activity (Staphylococcus aureus [35]): 25.63%
